# Measurements taken from the supplement of paper PMC10307832.
# Tests used:
# Experiment in all cases: relative viability (nuclei count vs DMSO), 5 days (fraction); higher = more cells survive
# HARA = test system: HARA
# In short: (§1)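 Lung cancer cell lines in 1536-well plates were dosed by pin tool the day after seeding, either with one drug alone or with a fixed anchor-drug dose plus five library-drug doses (not always all listed) in √10 steps. After 5 days, cells were fixed and their nuclei stained in one step (final 0.05% Triton X-100, 1% formaldehyde, 1 ug/ml Hoechst), then counted on 4× images. Relative viability is the nuclei count in treated wells divided by that in vehicle wells. Values are medians of duplicate plates.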
# LC-2-ad = test system: LC-2-ad
# In short: as §1
# NCI-H522 = test system: NCI-H522
# In short: as §1
# LXF-289 = test system: LXF-289
# In short: as §1
# PC-14 = test system: PC-14
# In short: as §1
# HCC-366 = test system: HCC-366
# In short: as §1
# NCI-H2126 = test system: NCI-H2126
# In short: as §1
# HCC-15 = test system: HCC-15
# In short: as §1
# NCI-H2009 = test system: NCI-H2009
# In short: as §1
# COR-L23 = test system: COR-L23
# In short: as §1
# HCC-44 = test system: HCC-44
# In short: as §1
# HCC-827 = test system: HCC-827
# In short: as §1
# LU99A = test system: LU99A
# In short: as §1
# NCI-H2087 = test system: NCI-H2087
# In short: as §1
# BEN = test system: BEN
# In short: as §1
# CAL-12T = test system: CAL-12T
# In short: as §1
# NCI-H727 = test system: NCI-H727
# In short: as §1
# HOP-62 = test system: HOP-62
# In short: as §1
# SK-MES-1 = test system: SK-MES-1
# In short: as §1
# PC-3 [JPC-3] = test system: PC-3 [JPC-3]
# In short: as §1
# NCI-H1993 = test system: NCI-H1993
# In short: as §1
# COR-L 105 = test system: COR-L 105
# In short: as §1
# NCI-H2170 = test system: NCI-H2170
# In short: as §1
# LCLC-97TM1 = test system: LCLC-97TM1
# In short: as §1
smiles,measurement,setting,value
CCCCCCCCCCCC1=C(O)C(=O)C=C(O)C1=O [Embelin] + O=C(CCCCCCC(=O)Nc1ccccc1)NO [Vorinostat] (partner 1 µM),relative viability,HARA; first compound 0.08 µM,0.559
same,relative viability,HARA; first compound 0.8 µM,0.603
same,relative viability,HARA; first compound 2.53 µM,0.545
same,relative viability,HARA; first compound 8 µM,0.582
same,relative viability,LC-2-ad; first compound 0.08 µM,0.759
same,relative viability,LC-2-ad; first compound 0.8 µM,0.695
same,relative viability,LC-2-ad; first compound 2.53 µM,0.716
same,relative viability,LC-2-ad; first compound 8 µM,0.774
same,relative viability,NCI-H522; first compound 0.08 µM,0.876
same,relative viability,NCI-H522; first compound 0.8 µM,0.906
same,relative viability,NCI-H522; first compound 2.53 µM,0.763
same,relative viability,NCI-H522; first compound 8 µM,0.856
same,relative viability,LXF-289; first compound 0.08 µM,0.803
same,relative viability,LXF-289; first compound 0.8 µM,0.742
same,relative viability,LXF-289; first compound 2.53 µM,0.715
same,relative viability,LXF-289; first compound 8 µM,0.809
same,relative viability,PC-14; first compound 0.08 µM,0.746
same,relative viability,PC-14; first compound 0.8 µM,0.886
same,relative viability,PC-14; first compound 2.53 µM,0.586
same,relative viability,PC-14; first compound 8 µM,0.948
same,relative viability,HCC-366; first compound 0.08 µM,0.409
same,relative viability,HCC-366; first compound 0.8 µM,0.412
same,relative viability,HCC-366; first compound 2.53 µM,0.364
same,relative viability,HCC-366; first compound 8 µM,0.268
same,relative viability,NCI-H2126; first compound 0.08 µM,0.803
same,relative viability,NCI-H2126; first compound 0.8 µM,0.763
same,relative viability,NCI-H2126; first compound 2.53 µM,0.796
same,relative viability,NCI-H2126; first compound 8 µM,0.6
same,relative viability,HCC-15; first compound 0.08 µM,0.906
same,relative viability,HCC-15; first compound 0.8 µM,0.965
same,relative viability,HCC-15; first compound 2.53 µM,0.908
same,relative viability,HCC-15; first compound 8 µM,0.841
same,relative viability,NCI-H2009; first compound 0.08 µM,0.748
same,relative viability,NCI-H2009; first compound 0.8 µM,0.837
same,relative viability,NCI-H2009; first compound 2.53 µM,0.705
same,relative viability,NCI-H2009; first compound 8 µM,0.748
same,relative viability,COR-L23; first compound 0.08 µM,0.404
same,relative viability,COR-L23; first compound 0.8 µM,0.559
same,relative viability,COR-L23; first compound 2.53 µM,0.386
same,relative viability,COR-L23; first compound 8 µM,0.492
same,relative viability,HCC-44; first compound 0.08 µM,1.09
same,relative viability,HCC-44; first compound 0.8 µM,1.08
same,relative viability,HCC-44; first compound 2.53 µM,1.12
same,relative viability,HCC-44; first compound 8 µM,1.2
same,relative viability,HCC-827; first compound 0.08 µM,0.806
same,relative viability,HCC-827; first compound 0.8 µM,0.915
same,relative viability,HCC-827; first compound 2.53 µM,0.966
same,relative viability,HCC-827; first compound 8 µM,0.917
same,relative viability,LU99A; first compound 0.08 µM,0.56
same,relative viability,LU99A; first compound 0.8 µM,0.461
same,relative viability,LU99A; first compound 2.53 µM,0.586
same,relative viability,LU99A; first compound 8 µM,0.336
same,relative viability,NCI-H2087; first compound 0.08 µM,0.659
same,relative viability,NCI-H2087; first compound 0.8 µM,0.714
same,relative viability,NCI-H2087; first compound 2.53 µM,0.759
same,relative viability,NCI-H2087; first compound 8 µM,0.744
same,relative viability,BEN; first compound 0.08 µM,0.57
same,relative viability,BEN; first compound 0.8 µM,0.613
same,relative viability,BEN; first compound 2.53 µM,0.647
same,relative viability,BEN; first compound 8 µM,0.515
same,relative viability,CAL-12T; first compound 0.08 µM,0.848
same,relative viability,CAL-12T; first compound 0.8 µM,0.779
same,relative viability,CAL-12T; first compound 2.53 µM,0.677
same,relative viability,CAL-12T; first compound 8 µM,0.697
same,relative viability,NCI-H727; first compound 0.08 µM,1.31
same,relative viability,NCI-H727; first compound 0.8 µM,1.11
same,relative viability,NCI-H727; first compound 2.53 µM,1.32
same,relative viability,NCI-H727; first compound 8 µM,1.22
same,relative viability,HOP-62; first compound 0.08 µM,0.634
same,relative viability,HOP-62; first compound 0.8 µM,0.812
same,relative viability,HOP-62; first compound 2.53 µM,0.504
same,relative viability,HOP-62; first compound 8 µM,0.527
same,relative viability,SK-MES-1; first compound 0.08 µM,1.1
same,relative viability,SK-MES-1; first compound 0.8 µM,1.2
same,relative viability,SK-MES-1; first compound 2.53 µM,1.1
same,relative viability,SK-MES-1; first compound 8 µM,0.898
same,relative viability,PC-3 [JPC-3]; first compound 0.08 µM,0.614
same,relative viability,PC-3 [JPC-3]; first compound 0.8 µM,0.95
same,relative viability,PC-3 [JPC-3]; first compound 2.53 µM,0.68
same,relative viability,PC-3 [JPC-3]; first compound 8 µM,0.604
same,relative viability,NCI-H1993; first compound 0.08 µM,0.825
same,relative viability,NCI-H1993; first compound 0.8 µM,0.772
same,relative viability,NCI-H1993; first compound 2.53 µM,0.764
same,relative viability,NCI-H1993; first compound 8 µM,0.646
same,relative viability,COR-L 105; first compound 0.08 µM,0.867
same,relative viability,COR-L 105; first compound 0.8 µM,0.906
same,relative viability,COR-L 105; first compound 2.53 µM,0.904
same,relative viability,COR-L 105; first compound 8 µM,0.787
same,relative viability,NCI-H2170; first compound 0.08 µM,0.773
same,relative viability,NCI-H2170; first compound 0.8 µM,0.784
same,relative viability,NCI-H2170; first compound 2.53 µM,0.922
same,relative viability,NCI-H2170; first compound 8 µM,0.754
same,relative viability,LCLC-97TM1; first compound 0.08 µM,0.789
same,relative viability,LCLC-97TM1; first compound 0.8 µM,1.16
same,relative viability,LCLC-97TM1; first compound 2.53 µM,0.652
same,relative viability,LCLC-97TM1; first compound 8 µM,0.496
